Experiment: recombinant UMI read abundance after kanamycin selection (control-corrected) (log10(CPM+1)); higher = more efficient recombination; extreme values may be limits of the assay; sequences stand for … in AGTGCAGAGAAAATCGGCCAGTTTTCTCTGCCTGCAGTCCGCATGCCGTGGGACCCCTTGGGTTCTAACCTGTTGCCTAGATTTATGCAGCGGACTGCCTTTCTCCCAAAGTGATAAACCGG…AGGTTGGTTTCACT; site = the 11-nt donor
Outline: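 Under IPTG (0.07 mM) plus kanamycin, or without selection, Escherichia coli carrying a UMI-tagged donor and donor-binding-loop pair library and a target plasmid for the IS621 bridge recombinase were plated in two replicates. Recombinant UMIs were PCR-amplified across the donor–target junction and sequenced. Counts were converted to CPM, averaged over replicates, scaled by control-derived factors and reported as log10(CPM+1).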
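Also: IS621 bridge recombinase in Escherichia coli cells against a fixed T5 target plasmid.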

| Sequence | recombinant UMI read abundance (log10) |
| --- | --- |
| ATGATAACATGGACCGGTTTTCCCGGTAATCCGTATTTGCC (site ATGATAACTGG) | 3.06 |
| ATGCAGACATGGACCGGTTTTCCCGGTAATCCGTATTTGTC (site ATGCAGACTGA) | 2.43 |
| ATGCCGCCATGGACCGGTTTTCCCGGTAATCCGTATTTGGG (site ATGCCGCCTCC) | 0.0227 |
| ATGCGTTCATGGACCGGTTTTCCCGGTAATCCGTATTTGAC (site ATGCGTTCTGT) | 2.37 |
| ATGCGTTCATGGACCGGTTTTCCCGGTAATCCGTATTTGCG (site ATGCGTTCTCG) | 1.96 |
| ATGCTACCATGGACCGGTTTTCCCGGTAATCCGTATTTGCT (site ATGCTACCTAG) | 0 |
| ATGCTACCATGGACCGGTTTTCCCGGTAATCCGTATTTGCT (site CTGCTACCTAG) | 0 |
| ATGCTACCATGGACCGGTTTTCCCGGTAATCCGTATTTGCT (site GTGCTACCTAG) | 0 |
| ATGCTACCATGGACCGGTTTTCCCGGTAATCCGTATTTGCT (site TTGCTACCTAG) | 0 |
| ATGGCAACATGGACCGGTTTTCCCGGTAATCCGTATTTGTG (site ATGGCAACTCA) | 0.02 |
| ATGGGCCCATGGACCGGTTTTCCCGGTAATCCGTATTTGTC (site ATGGGCCCTGA) | 0.504 |
| ATGGTCGCATGGACCGGTTTTCCCGGTAATCCGTATTTGTT (site ATGGTCGCTAA) | 1.29 |
| ATGGTGTCATGGACCGGTTTTCCCGGTAATCCGTATTTGCT (site ATGGTGTCTAG) | 3.4 |
| ATGTAGGCATGGACCGGTTTTCCCGGTAATCCGTATTTGGA (site ATGTAGGCTAC) | 0.451 |
| ATGTAGGCATGGACCGGTTTTCCCGGTAATCCGTATTTGGA (site ATGTAGGCTCC) | 0.209 |
| ATGTAGGCATGGACCGGTTTTCCCGGTAATCCGTATTTGGA (site ATGTAGGCTGC) | 1.58 |
| ATGTAGGCATGGACCGGTTTTCCCGGTAATCCGTATTTGGA (site ATGTAGGCTTC) | 1 |
| ATGTATACATGGACCGGTTTTCCCGGTAATCCGTATTTGAC (site ATATATACTGT) | 2.59 |
| ATGTATACATGGACCGGTTTTCCCGGTAATCCGTATTTGAC (site ATCTATACTGT) | 0.457 |
| ATGTATACATGGACCGGTTTTCCCGGTAATCCGTATTTGAC (site ATGTATACTGT) | 3.18 |
| ATGTATACATGGACCGGTTTTCCCGGTAATCCGTATTTGAC (site ATTTATACTGT) | 0.661 |
| ATGTCCGCATGGACCGGTTTTCCCGGTAATCCGTATTTGCC (site ATGTCCGCTGG) | 2.45 |
| ATGTGGGCATGGACCGGTTTTCCCGGTAATCCGTATTTGTA (site ATGTGGGCTTA) | 2.32 |

| Sequence | recombinant UMI read abundance (log10) |
| --- | --- |
| ATGTTGGCATGGACCGGTTTTCCCGGTAATCCGTATTTGGC (site ATGTAGGCTGC) | 1.71 |
| ATGTTGGCATGGACCGGTTTTCCCGGTAATCCGTATTTGGC (site ATGTCGGCTGC) | 0.939 |
| ATGTTGGCATGGACCGGTTTTCCCGGTAATCCGTATTTGGC (site ATGTGGGCTGC) | 0.332 |
| ATGTTGGCATGGACCGGTTTTCCCGGTAATCCGTATTTGGC (site ATGTTGGCTGC) | 2.68 |
| ATTAAGACATGGACCGGTTTTCCCGGTAATCCGTATTTGAA (site ATTAAGACTTT) | 1.43 |
| ATTACGACATGGACCGGTTTTCCCGGTAATCCGTATTTGGG (site ATTACGACTCC) | 0.00852 |
| ATTATTACATGGACCGGTTTTCCCGGTAATCCGTATTTGCA (site ATTATTACTTG) | 1.8 |
| ATTCATGCATGGACCGGTTTTCCCGGTAATCCGTATTTGGT (site ATTCATGCTAC) | 0.729 |
| ATTCCATCATGGACCGGTTTTCCCGGTAATCCGTATTTGGA (site ATTCCATCTTC) | 0.345 |
| ATTCGTCCATGGACCGGTTTTCCCGGTAATCCGTATTTGGT (site ATTCGTCCTAC) | 0.0259 |
| ATTGACACATGGACCGGTTTTCCCGGTAATCCGTATTTGGT (site ATTGAAACTAC) | 0.168 |
| ATTGACACATGGACCGGTTTTCCCGGTAATCCGTATTTGGT (site ATTGACACTAC) | 0.911 |
| ATTGACACATGGACCGGTTTTCCCGGTAATCCGTATTTGGT (site ATTGAGACTAC) | 0.811 |
| ATTGACACATGGACCGGTTTTCCCGGTAATCCGTATTTGGT (site ATTGATACTAC) | 0.459 |
| ATTGAGACATGGACCGGTTTTCCCGGTAATCCGTATTTGCT (site ATTGAGACTAA) | 0.627 |
| ATTGAGACATGGACCGGTTTTCCCGGTAATCCGTATTTGCT (site ATTGAGACTAC) | 0.379 |
| ATTGAGACATGGACCGGTTTTCCCGGTAATCCGTATTTGCT (site ATTGAGACTAG) | 2.42 |
| ATTGAGACATGGACCGGTTTTCCCGGTAATCCGTATTTGCT (site ATTGAGACTAT) | 0.827 |
| ATTGAGACATGGACCGGTTTTCCCGGTAATCCGTATTTGGC (site ATTGAGACTAC) | 0.0133 |
| ATTGAGACATGGACCGGTTTTCCCGGTAATCCGTATTTGGC (site ATTGAGACTCC) | 0.38 |
| ATTGAGACATGGACCGGTTTTCCCGGTAATCCGTATTTGGC (site ATTGAGACTGC) | 1.83 |
| ATTGAGACATGGACCGGTTTTCCCGGTAATCCGTATTTGGC (site ATTGAGACTTC) | 0.679 |
| ATTGAGACATGGACCGGTTTTCCCGGTAATCCGTATTTGTT (site ATTGAGACTAA) | 1.71 |

| Sequence | recombinant UMI read abundance (log10) |
| --- | --- |
| ATTGAGACATGGACCGGTTTTCCCGGTAATCCGTATTTGTT (site ATTGAGACTAC) | 0.013 |
| ATTGAGACATGGACCGGTTTTCCCGGTAATCCGTATTTGTT (site ATTGAGACTAG) | 2.02 |
| ATTGAGACATGGACCGGTTTTCCCGGTAATCCGTATTTGTT (site ATTGAGACTAT) | 0.811 |
| ATTGAGCCATGGACCGGTTTTCCCGGTAATCCGTATTTGGT (site ATTGAGACTAC) | 0.00491 |
| ATTGAGCCATGGACCGGTTTTCCCGGTAATCCGTATTTGGT (site ATTGAGCCTAC) | 0.00384 |
| ATTGAGCCATGGACCGGTTTTCCCGGTAATCCGTATTTGGT (site ATTGAGGCTAC) | 0.0212 |
| ATTGAGCCATGGACCGGTTTTCCCGGTAATCCGTATTTGGT (site ATTGAGTCTAC) | 0.633 |
| ATTGAGGCATGGACCGGTTTTCCCGGTAATCCGTATTTGGT (site ATTGAGACTAC) | 0.413 |
| ATTGAGGCATGGACCGGTTTTCCCGGTAATCCGTATTTGGT (site ATTGAGCCTAC) | 0.486 |
| ATTGAGGCATGGACCGGTTTTCCCGGTAATCCGTATTTGGT (site ATTGAGGCTAC) | 0.927 |
| ATTGAGGCATGGACCGGTTTTCCCGGTAATCCGTATTTGGT (site ATTGAGTCTAC) | 0.801 |
| ATTGCAGCATGGACCGGTTTTCCCGGTAATCCGTATTTGAG (site ATTGCAGCTCT) | 1.03 |
| ATTGCCGCATGGACCGGTTTTCCCGGTAATCCGTATTTGTC (site ATTGCCGCTGA) | 0.656 |
| ATTGCCTCATGGACCGGTTTTCCCGGTAATCCGTATTTGCT (site ATTGCCTCTAG) | 2.03 |
| ATTGCGACATGGACCGGTTTTCCCGGTAATCCGTATTTGGT (site ATTGAGACTAC) | 0.0594 |
| ATTGCGACATGGACCGGTTTTCCCGGTAATCCGTATTTGGT (site ATTGCGACTAC) | 0.639 |
| ATTGCGACATGGACCGGTTTTCCCGGTAATCCGTATTTGGT (site ATTGGGACTAC) | 0.456 |
| ATTGCGACATGGACCGGTTTTCCCGGTAATCCGTATTTGGT (site ATTGTGACTAC) | 0.225 |
| ATTGGGACATGGACCGGTTTTCCCGGTAATCCGTATTTGGT (site ATTGAGACTAC) | 0.413 |
| ATTGGGACATGGACCGGTTTTCCCGGTAATCCGTATTTGGT (site ATTGCGACTAC) | 0.021 |
| ATTGGGACATGGACCGGTTTTCCCGGTAATCCGTATTTGGT (site ATTGGGACTAC) | 0.896 |
| ATTGGGACATGGACCGGTTTTCCCGGTAATCCGTATTTGGT (site ATTGTGACTAC) | 0.0209 |

From the supplement of paper PMC11208160
